From ChEMBL document CHEMBL4808203, “Angiokinase inhibition of VEGFR-2, PDGFR and FGFR and cell growth inhibition in lung cancer: Design, synthesis, biological evaluation and molecular docking of novel azaheterocyclic coumarin derivatives” (Bioorg Med Chem Lett, 2021)

What was measured:
A549 [1] = experiment: Cytotoxicity against human A549 cells assessed as cell viability measured by MTT assay; type: functional, cell-based
WI-38 = experiment: Cytotoxicity against human WI-38 cells assessed as cell viability measured by MTT assay; type: ADME, cell-based
[2] = biological target: Platelet-derived growth factor receptor beta (Homo sapiens, UniProt P09619); experiment: Inhibition of PDGFRbeta (unknown origin)
[3] = biological target: Vascular endothelial growth factor receptor 2 (Homo sapiens, UniProt P35968); experiment: Inhibition of VEGFR2 (unknown origin)
A549 [4] = experiment: Induction of apoptosis in human A549 cells assessed as late apoptotic cells measured after 24 hrs by Annexin-V-FITC/propidium iodide staining based assay (reference value: 0.15%); type: functional
[5] = biological target: Fibroblast growth factor receptor (Homo sapiens, UniProt P22607+P11362+P22455+P21802); experiment: Inhibition of FGFR (unknown origin); type: protein assay
A549 [6] = experiment: Cell cycle arrest in human A549 cells assessed as accumulation at […] phase measured after 24 hrs (reference value: 42.28%); type: functional
A549 [7] = experiment: Cell cycle arrest in human A549 cells assessed as accumulation at pre-G1 phase measured after 24 hrs (reference value: 3.83%); type: functional
[8] = biological target: Epidermal growth factor receptor (Homo sapiens, UniProt P00533); experiment: Inhibition of EGFR (unknown origin)
A549 [9] = experiment: Cell cycle arrest in human A549 cells assessed as accumulation at G2/M phase measured after 24 hrs (reference value: 28.28%); type: functional
A549 [10] = experiment: Induction of apoptosis in human A549 cells assessed as early apoptotic cells measured after 24 hrs by Annexin-V-FITC/propidium iodide staining based assay (reference value: 0.39%); type: functional
A549 [11] = experiment: Cell cycle arrest in human A549 cells assessed as accumulation at S phase measured after 24 hrs (reference value: 36.58%); type: functional
A549 [12] = experiment: Induction of apoptosis in human A549 cells assessed as necrotic cells measured after 24 hrs by Annexin-V-FITC/propidium iodide staining based assay (reference value: 1.29%); type: functional

Chain of Epidermal growth factor receptor (P00533 whole entry): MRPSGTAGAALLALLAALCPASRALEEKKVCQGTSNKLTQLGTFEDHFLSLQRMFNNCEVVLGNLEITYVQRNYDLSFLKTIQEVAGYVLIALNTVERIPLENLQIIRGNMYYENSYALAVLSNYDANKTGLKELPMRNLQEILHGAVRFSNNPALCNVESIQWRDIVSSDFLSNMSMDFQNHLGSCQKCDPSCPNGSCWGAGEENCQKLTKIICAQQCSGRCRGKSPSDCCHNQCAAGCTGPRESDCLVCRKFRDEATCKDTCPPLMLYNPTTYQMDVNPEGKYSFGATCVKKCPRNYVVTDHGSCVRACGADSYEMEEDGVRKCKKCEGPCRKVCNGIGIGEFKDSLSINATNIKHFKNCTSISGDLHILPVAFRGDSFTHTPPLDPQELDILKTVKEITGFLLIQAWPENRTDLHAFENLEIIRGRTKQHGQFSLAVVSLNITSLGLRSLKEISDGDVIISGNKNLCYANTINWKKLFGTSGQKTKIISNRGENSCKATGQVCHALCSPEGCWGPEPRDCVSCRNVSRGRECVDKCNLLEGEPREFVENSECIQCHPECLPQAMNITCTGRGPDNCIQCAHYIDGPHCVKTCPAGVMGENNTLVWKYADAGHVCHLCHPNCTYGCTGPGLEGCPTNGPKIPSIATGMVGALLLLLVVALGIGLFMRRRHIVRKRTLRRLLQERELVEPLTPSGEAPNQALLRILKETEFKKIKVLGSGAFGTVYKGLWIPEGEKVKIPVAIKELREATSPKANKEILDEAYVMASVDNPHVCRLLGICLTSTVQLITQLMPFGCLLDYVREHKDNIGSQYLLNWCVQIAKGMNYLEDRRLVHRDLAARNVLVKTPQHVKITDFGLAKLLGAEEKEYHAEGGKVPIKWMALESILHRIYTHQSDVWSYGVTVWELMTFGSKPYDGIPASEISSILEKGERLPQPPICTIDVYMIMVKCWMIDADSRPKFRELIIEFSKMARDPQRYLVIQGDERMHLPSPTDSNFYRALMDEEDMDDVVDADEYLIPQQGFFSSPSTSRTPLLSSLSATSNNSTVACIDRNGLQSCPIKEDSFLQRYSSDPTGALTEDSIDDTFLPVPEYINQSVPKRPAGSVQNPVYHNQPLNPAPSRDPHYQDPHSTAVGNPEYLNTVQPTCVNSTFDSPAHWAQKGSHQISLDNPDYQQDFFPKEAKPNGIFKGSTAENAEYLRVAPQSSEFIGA
Chain of Vascular endothelial growth factor receptor 2 (P35968 whole entry): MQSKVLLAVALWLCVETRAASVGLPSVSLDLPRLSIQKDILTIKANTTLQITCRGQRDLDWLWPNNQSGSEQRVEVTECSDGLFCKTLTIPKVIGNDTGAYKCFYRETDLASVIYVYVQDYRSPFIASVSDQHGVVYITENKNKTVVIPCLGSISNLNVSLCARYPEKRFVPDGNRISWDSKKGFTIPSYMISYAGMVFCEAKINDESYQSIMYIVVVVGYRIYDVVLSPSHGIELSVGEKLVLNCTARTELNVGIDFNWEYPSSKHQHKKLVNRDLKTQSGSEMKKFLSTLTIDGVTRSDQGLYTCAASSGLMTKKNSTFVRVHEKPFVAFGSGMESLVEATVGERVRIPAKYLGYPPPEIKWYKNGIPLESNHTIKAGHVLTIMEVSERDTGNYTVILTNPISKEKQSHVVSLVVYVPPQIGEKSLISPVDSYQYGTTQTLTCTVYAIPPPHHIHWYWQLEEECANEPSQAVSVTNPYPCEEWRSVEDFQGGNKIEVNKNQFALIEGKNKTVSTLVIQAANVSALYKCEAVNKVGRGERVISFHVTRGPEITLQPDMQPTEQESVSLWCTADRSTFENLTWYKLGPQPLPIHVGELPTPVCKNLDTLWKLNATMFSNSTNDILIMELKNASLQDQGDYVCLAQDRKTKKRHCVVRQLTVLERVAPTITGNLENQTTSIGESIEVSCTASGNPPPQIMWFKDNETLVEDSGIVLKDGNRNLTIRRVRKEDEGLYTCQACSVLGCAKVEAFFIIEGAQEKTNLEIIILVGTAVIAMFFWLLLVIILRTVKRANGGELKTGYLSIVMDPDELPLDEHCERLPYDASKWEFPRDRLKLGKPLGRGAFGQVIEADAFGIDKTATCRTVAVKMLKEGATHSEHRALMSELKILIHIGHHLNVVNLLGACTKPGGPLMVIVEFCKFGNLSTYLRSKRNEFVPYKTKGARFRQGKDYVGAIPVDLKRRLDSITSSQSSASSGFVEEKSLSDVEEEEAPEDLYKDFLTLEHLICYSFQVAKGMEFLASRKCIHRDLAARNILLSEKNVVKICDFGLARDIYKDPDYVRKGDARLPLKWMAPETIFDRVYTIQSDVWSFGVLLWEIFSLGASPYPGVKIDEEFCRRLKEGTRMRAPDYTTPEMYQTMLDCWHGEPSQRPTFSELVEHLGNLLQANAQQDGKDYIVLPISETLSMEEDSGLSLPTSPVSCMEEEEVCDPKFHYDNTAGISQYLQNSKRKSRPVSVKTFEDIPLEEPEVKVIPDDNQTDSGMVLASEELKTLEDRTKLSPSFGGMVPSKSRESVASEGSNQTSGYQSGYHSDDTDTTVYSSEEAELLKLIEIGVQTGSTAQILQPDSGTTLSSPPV
Chain of Platelet-derived growth factor receptor beta (P09619 whole entry): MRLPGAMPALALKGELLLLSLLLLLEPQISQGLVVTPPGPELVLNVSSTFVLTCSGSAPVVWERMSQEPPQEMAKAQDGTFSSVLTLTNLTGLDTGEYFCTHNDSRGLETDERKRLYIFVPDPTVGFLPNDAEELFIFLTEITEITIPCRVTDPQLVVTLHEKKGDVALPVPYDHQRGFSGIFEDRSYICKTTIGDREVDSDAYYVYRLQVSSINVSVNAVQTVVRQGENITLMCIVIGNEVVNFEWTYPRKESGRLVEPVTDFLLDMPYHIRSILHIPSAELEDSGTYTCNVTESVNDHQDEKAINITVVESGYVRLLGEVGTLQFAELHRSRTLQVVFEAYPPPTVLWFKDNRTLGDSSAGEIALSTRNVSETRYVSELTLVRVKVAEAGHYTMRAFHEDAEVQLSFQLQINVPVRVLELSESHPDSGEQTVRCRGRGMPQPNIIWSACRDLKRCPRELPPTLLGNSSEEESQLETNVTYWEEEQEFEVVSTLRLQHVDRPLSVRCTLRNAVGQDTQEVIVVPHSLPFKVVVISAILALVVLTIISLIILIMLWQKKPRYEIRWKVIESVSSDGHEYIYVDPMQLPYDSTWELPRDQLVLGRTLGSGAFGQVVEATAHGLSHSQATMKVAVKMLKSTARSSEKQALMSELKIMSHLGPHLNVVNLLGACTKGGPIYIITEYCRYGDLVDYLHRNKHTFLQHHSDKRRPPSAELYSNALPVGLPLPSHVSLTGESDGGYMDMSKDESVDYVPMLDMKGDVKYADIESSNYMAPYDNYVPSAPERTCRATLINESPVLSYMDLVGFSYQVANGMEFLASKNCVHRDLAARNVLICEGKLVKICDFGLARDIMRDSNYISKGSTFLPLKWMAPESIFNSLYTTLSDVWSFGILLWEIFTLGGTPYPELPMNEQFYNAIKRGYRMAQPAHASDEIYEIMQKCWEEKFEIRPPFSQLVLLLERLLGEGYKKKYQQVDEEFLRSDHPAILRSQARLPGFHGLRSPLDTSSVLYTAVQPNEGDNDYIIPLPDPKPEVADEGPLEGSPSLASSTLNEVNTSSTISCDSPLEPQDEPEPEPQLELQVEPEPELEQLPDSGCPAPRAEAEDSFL

| Structure (SMILES) | IC50 (A549 [1]) [µM] | other results |
| --- | --- | --- |
| COc1cc(-c2cc(-c3c(O)c4ccccc4oc3=O)nc(O)n2)ccc1O | 138 |  |
| N#Cc1c(-c2ccc(F)cc2)cc(-c2c(O)c3ccccc3oc2=O)nc1N | 22.3 |  |
| O=c1oc2ccccc2c(O)c1C1=NNC(c2ccc(F)cc2)C1 (stereo not given) | 1.05 | IC50 (WI-38): 19.9 µM |
| COc1cc(-c2cc(-c3c(O)c4ccccc4oc3=O)nc(S)n2)ccc1O | 36.1 |  |
| COc1ccc(-c2cc(-c3c(O)c4ccccc4oc3=O)nc(N)c2C#N)cc1OC | 7.38 |  |
| COc1cc(C2CC(c3c(O)c4ccccc4oc3=O)=NN2)ccc1O (stereo not given) | 8.4 |  |
| O=c1oc2ccccc2c(O)c1-c1cc(-c2c(F)cccc2Cl)nc(S)n1 | 3.98 | IC50 (WI-38): 30.5 µM |
| COc1cccc(C2CC(c3c(O)c4ccccc4oc3=O)=NN2)c1 (stereo not given) | 5.91 |  |
| COc1cccc(-c2cc(-c3c(O)c4ccccc4oc3=O)nc(N)c2C#N)c1 | 2.38 | IC50 [2]: 0.02 µM; IC50 [3]: 0.042 µM; Activity (A549 [4]): 22.37%; IC50 [5]: 0.021 µM; Activity (A549 [6]): 38.55%; Activity (A549 [7]): 42.14%; IC50 [8]: 0.033 µM; Activity (A549 [9]): 11.32%; Activity (A549 [10]): 4.67%; Activity (A549 [11]): 58.89%; IC50 (WI-38): 53.8 µM; Activity (A549 [12]): 17.12% |
| COc1cc(-c2cc(-c3c(O)c4ccccc4oc3=O)nc(N)c2C#N)ccc1O | 38.5 |  |
| O=c1oc2ccccc2c(O)c1-c1cc(-c2ccc(F)cc2)nc(O)n1 | 2.39 | IC50 (WI-38): 37.8 µM |
| COc1ccc(-c2cc(-c3c(O)c4ccccc4oc3=O)nc(O)n2)cc1OC | 21.7 |  |
| COc1cccc(-c2cc(-c3c(O)c4ccccc4oc3=O)nc(O)n2)c1 | 5.55 |  |
| COc1cccc(-c2cc(-c3c(O)c4ccccc4oc3=O)nc(S)n2)c1 | 10.2 |  |
| N#Cc1c(-c2c(F)cccc2Cl)cc(-c2c(O)c3ccccc3oc2=O)nc1N | 46.3 |  |
| COc1ccc(C2CC(c3c(O)c4ccccc4oc3=O)=NN2)cc1OC (stereo not given) | 7.58 |  |
| O=c1oc2ccccc2c(O)c1-c1cc(-c2ccc(F)cc2)nc(S)n1 | 21.1 |  |
| O=c1oc2ccccc2c(O)c1-c1cc(-c2c(F)cccc2Cl)nc(O)n1 | 5.1 |  |
| O=c1oc2ccccc2c(O)c1C1=NNC(c2c(F)cccc2Cl)C1 (stereo not given) | 23.5 |  |
| COc1ccc(-c2cc(-c3c(O)c4ccccc4oc3=O)nc(S)n2)cc1OC | 62.6 |  |
